According to article PMC3133470, “Activity of Cathelicidin Peptides against Simkania negevensis” (International Journal of Peptides, 2011):
Where no end group is shown, it is not given here.

How the values were obtained:
[1] = system: Simkania negevensis reference strain Z (ATCC VR-1471); assay: Inhibition of Simkania negevensis infectivity (reduction of inclusions) after pre-incubation of elementary bodies with peptide; type: cell-based; conditions: purified EBs incubated with peptide 2 h at room temperature in PBS/SPG pH 7.4; tenfold dilutions 100 to 0.01 μg/mL; LLC-MK2 cells, 72 h at 35°C; inclusions by immunofluorescence; untreated control mean 74 IFU/mL; means of three experiments in triplicate
Experimental: The cathelicidin peptides—PG-1 from pig, Bac7 (1–35) from cattle, SMAP-29 from sheep, LL-37 from human, BMAP-27, and BMAP-28 from cattle—were chemically synthesized, purified, characterized, and provided as lyophilized peptide, as previously reported. The reference strain Z of S. negevensis (American Type Culture Collection VR-1471) was grown in LLC-MK2 cells in 6-large well plates and elementary bodies (EBs) were purified by use of sucrose gradients, resuspended in sucrose-phosphate-glutamic acid buffer (SPG) pH 7.4 (75 g sucrose, 87 mL 0.2 M Na2HPO4, 13 mL 0.2 M NaH2PO4, 0.72 g L-glutamic acid), and frozen in aliquots at −80°C.
Stock solutions of each peptide at 1 g/liter were prepared in phosphate-buffered saline (PBS), pH 7.4, and stored frozen in 20-μL aliquots at −80°C until used. To determine the lowest peptide concentration required to achieve ≥50% reduction of inclusions with respect to untreated control, the various peptides were diluted tenfold from 200 to 0.02 μg/mL, in a volume of 100 μL with PBS in polypropylene tubes. An equal volume of 5 × 10^5 inclusion-forming units (IFU)/mL of purified S. negevensis EBs in SPG medium was then added, so obtaining a final cathelicidin concentration ranging from 100 to 0.01 μg/mL in a mixture of PBS and SPG at a final pH 7.4. EBs untreated with cathelicidins were used as a control. After incubation at room temperature for 2 h, a 200 μL aliquot was added to 800 μL chlamydial growth medium and inoculated onto LLC-MK2 cells grown in 24-well plates in a 5% CO2 atmosphere. After centrifugation at 800 × g for 1 h at 33°C and incubation at 35°C for 72 h, the cultures were fixed and stained for the presence of inclusions by immunofluorescence using an in-house rabbit polyclonal hyperimmune serum raised against S. negevensis. The number of IFU per coverslip was counted in 40 microscopic fields using a ZEISS UV microscope at a magnification of ×200.
All tests were performed in triplicate and in three independent experiments.

[2] = system: Chlamydophila felis; conditions: previous study of the authors; cited from earlier work
Experimental: (§1) With regard to the other chlamydial species tested, only Chlamydophila pneumoniae and Chlamydophila felis were sensitive to 10 μg/mL of SMAP-29 and 80 μg/mL of SMAP-29/Bac7, respectively.

[3] = system: Chlamydia trachomatis strains; conditions: previous study of the authors; cited from earlier work
Experimental: as §1

Substance: Bac7: cathelicidin peptide Bac7 (1–35) from cattle, chemically synthesized (RRIRPRPPRLPRPRPRPLPFPRPGPRPIPRPLPFP; Bactenecin 7; UniProt P19661 131-165, looked up, fragment)
- lowest peptide concentration required to achieve ≥50% reduction of inclusions with respect to untreated control [1]: 0.1 µg/mL
- concentration to which Chlamydophila felis was sensitive [2]: 80 µg/mL

Substance: PG-1: cathelicidin peptide from pig, chemically synthesized; native protegrin-1 has two intramolecular disulfide bonds (RGGRLCYCRRRFCVCVGR; not fully specified (bridges); ends and bridges not checked; also: native protegrin-1 has two intramolecular disulfides, pairing not given here; UniProt P32194 131-148, looked up)
- lowest peptide concentration required to achieve ≥50% reduction of inclusions with respect to untreated control [1]: 1 µg/mL

Substance: LL-37
- lowest peptide concentration required to achieve ≥50% reduction of inclusions with respect to untreated control [1]: > 100 µg/mL
- concentration with inhibitory effect on Chlamydia trachomatis strains [3]: > 80 µg/mL
